# Source: paper PMC6058925 (JACC: Basic to Translational Science, 2017)
# Tested on: adult male CD1 mice, ischemia-reperfusion
# Conditions: mouse, in vivo
substance,measurement,value
"AAT: plasma-derived alpha-1 antitrypsin (Aralast NP, Baxter)",Infarct size when given with the LRP1 blocking antibody,significant increase in infarct size
